In patent US11819498B2, “Methods and compositions for treating autophagy related disease states and conditions utilizing AMPK activation” (UNM RAINFOREST INNOVATIONS, priority 2019, dated 2023):
Where a SMILES comes first, the peptide text is derived from it. The star is where a group is joined. βNA = c1ccc2cc(N*)ccc2c1

Assays:
AMPKα1 = experiment: Western blot of Huh7 cells treated with TAK1 inhibitor and LLOMe; format: cell-based; settings: TAK1 inhibitor 1 h prior to 1 mM LLOMe 30 min
Method: (§1) Western blotting and co-immunoprecipitation (co-IP) were performed as described previously (Chauhan et al., 2016). For TAK1 inhibition, the cells were treated with TAK1 inhibitor (5Z-oxozeanol) 1 h prior to LLOMe treatment. For co-IP, cells were transfected with plasmids as indicated in figures and lysed in NP-40 buffer containing protease inhibitor cocktail and PMSF. Lysates were incubated with antibodies at 4° C. for 4 h followed by incubation with protein G Dynabeads for 2 h at 4° C. Beads were washed three times with PBS and boiled with SDS containing sample buffer, samples were processed for immunoblotting to analyze the interactions between immunoprecipitated proteins.

TAK1 = experiment: Western blot of HeLa cells treated with TAK1 inhibitor and LLOMe; format: cell-based; settings: 1 mM LLOMe 30 min (FIG. 5C)
Method: as §1

LC3 = LC3 response in Huh7 and HeLa cells treated with TAK1 inhibitor and LLOMe; format: cell-based; settings: with LLOMe (FIG. 5C)
Method: as §1

AMPK = experiment: Western blot of AMPK activation upon lysosomal damage by damaging agents; format: cell-based; settings: HEK293T cells, time and dose dependent, Western blot (FIGS. 4SE-F)
Method: as §1

ALIX puncta = ALIX puncta by high content microscopy in THP-1 cells; format: cell-based; settings: 250 μM metformin 2 h or 250 μM LLOMe 1 h (FIG. 5SF)
Method: (§2) The cells were plated in 96 well plates on day 1 and were treated on day 2, followed by fixation in 4% paraformaldehyde for 5 min. After fixation, cells were washed twice with 1×PBS and were then permeabilized with 0.1% saponin in 3% Bovine serum albumin (BSA) for 30 min. The cells were then incubated with primary antibodies O/N at 4° C. On day3, the cells were washed twice with 1×PBS and incubated with secondary antibodies for 1 h followed by 5 min incubation with Hoechst 33342. High content microscopy with automated image acquisition and quantification was carried out using a Cellomics HCS scanner and iDEV software (ThermoFisher Scientific). Automated epifluorescence image collection was performed for a minimum of 500 cells per well. Epifluorescence images were machine analyzed using preset scanning parameters and object mask definitions. Hoechst 33342 staining was used for autofocus and to automatically define cellular outlines based on background staining of the cytoplasm. Primary objects were cells, and regions of interest (ROI) or targets were algorithm-defined by shape/segmentation, maximum/minimum average intensity, total area and total intensity, etc., to automatically identify puncta or other profiles within valid primary objects. All data collection, processing (object, ROI, and target mask assignments) and analyses were computer driven independently of human operators.

AMPKα1 on lysosomes = experiment: LysoIP lysosome purification and immunoblot; format: cell-based; settings: HEK293T cells, 1 mM LLOMe 30 min, LysoIP (FIG. 6B)
Method: Stable LysoIP cells were produced, by utilizing lentiviruses constructs from David M. Sabatini Lab (White Head Institute). HEK293T cells were transfected with pLJC5-TMEM192-3xHA or pLJC5-TMEM192-2XFLAG constructs in combination with pCMV-VSV-G and psPAX2 packaging plasmids, 60 h after transfection, the supernatant containing lentiviruses was collected and centrifuged to remove cells and then frozen at −80° C. To establish LysoIP stably expressing cell lines, HEK293T, Huh7 or Huh7 Gal9^KO cells were plated in […] in DMEM with 10% FBS and infected with 500 μL of virus-containing media overnight followed by addition of 1 μg/mL puromycin for selection. Cells were plated in 15 cm^2 culture plates and were used at 90% confluency for each LysoIP. Cells with or without 1 mM LLOMe treatment were quickly rinsed twice with PBS and then scraped in 1 mL of KPBS (136 mM KCl, 10 mM KH2PO4, pH7.25 was adjusted with KOH) and centrifuged at 3000 rpm for 2 min at 4° C. Pelleted cells were resuspended in 950 μL KPBS and reserved 25 μL for further processing of the whole-cell lysate. The remaining cells were gently homogenized with 20 strokes of a 2 mL homogenizer. The homogenate was then centrifuged at 3000 rpm for 2 min at 4° C. and the supernatant was incubated with 100 μL of KPBS prewashed anti-HA magnetic beads (ThermoFisher) on a gentle rotator shaker for 3 min. […]

[1] = test system: Gal9 complexes with AMPK and TAK1; experiment: APEX2-Gal9 proximity biotinylation and co-IP after LLOMe; format: cell-based
Method: as §1

autophagy = settings: cited studies; cited from earlier work
Gal9 puncta = Gal9 puncta by high content microscopy in metformin-treated cells; format: cell-based
Method: as §2

Gal8 puncta = Gal8 puncta by high content microscopy in THP-1 cells; format: cell-based; settings: 250 μM for 2 h, HCM (FIG. 5SB)
Method: as §2

ubiquitin puncta = experiment: Ubiquitin puncta by high content microscopy in THP-1 cells; format: cell-based; settings: 250 μM metformin 2 h compared with 250 μM LLOMe 1 h (FIG. 5SC)
Method: as §2

[2] = test system: LysoTracker Red staining of acidified compartments such as lysosomes; experiment: LysoTracker assay in THP-1 cells; format: cell-based; settings: 250 μM for 2 h (FIG. 5SD)
Method: Prepare fresh LysoTracker Staining Solution (2 μL LysoTracker in 1 mL medium). Add 10 μL LysoTracker Staining Solution to no treatment, LLOMe treated or Metformin treated THP-1 cells in 96 wells for total 100 μL per well and incubate at 37° C. for 30 min protected from light. Rinse gently by 1×PBS and fix in 4% Paraformaldehyde for 2 min. Wash once by 1×PBS and blot with Hoechst 33342 for 2 min before detecting by high content microscopy.

LC3 puncta = LC3 puncta by high content microscopy in THP-1 cells; format: cell-based; settings: 250 μM metformin 2 h, compared with LLOMe (FIG. 7A)
Method: as §2

With COc1cc(O)c2c(c1)/C=C/C[C@H](O)[C@H](O)C(=O)/C=C\C[C@H](C)OC2=O [5ZO, (5-Z)-7-oxozeaenol] the “AMPKα1 activation upon lysosomal damage” value (AMPKα1) was “prevented AMPKα1 activation”, the “TAK1 activation with LLOMe” value (TAK1) was “suppressed TAK1 activation” and the “phosphorylation of AMPK substrate ACC (pS79)” value (TAK1) was “inhibition of phosphorylation”. The “phosphorylation of AMPKα1 (pT172)” value (TAK1) was “inhibition of phosphorylation” and the LC3 response (LC3) was “reduced the LC3 response”.
With NCC(=O)N[C@@H](Cc1ccccc1)C(=O)Nc1ccc2ccccc2c1 [GPN, Gly-Phe β-naphthylamide] (H-Gly-Phe-βNA) the “AMPK activation upon lysosomal damage” value (AMPK) was “activated”.
For Br.COC(=O)[C@H](CC(C)C)NC(=O)[C@@H](N)CC(C)C [LLOMe, Leu-Leu methyl ester hydrobromide], the ALIX puncta response (ALIX puncta) was “a robust response”, the “AMPK activation upon lysosomal damage” value (AMPK) was “activated” and the “AMPKα1 on purified lysosomes” value (AMPKα1 on lysosomes) was “enrichment of AMPKα1 on lysosomes”. For the same compound, the “association between AMPK and Gal9” value ([1]; APEX2-Gal9 proximity biotinylation, 30 min of exposure (FIG. 4SA)) was “increased association”, the “mCherry-Gal9 association with GFP-TAK1” value ([1]; HeLa Flp-In Gal9 Tet-ON cells, 30 min of treatment (FIG. 4SB)) was “A similar increase” and the autophagy induction (autophagy) was “has been shown to induce autophagy”.
In the case of CN(C)C(=N)N=C(N)N [metformin], the “response of Huh7 or 293T cells to metformin” value (Gal9 puncta; Huh7 or 293T cells) is reported as “did not respond”, the “lysosomal damage response, Gal9 puncta formation” value (Gal9 puncta; THP-1 cells, 250 μM for 2 h, HCM (FIG. 5SB)) is reported as “lysosomal damage response by detecting Gal9 puncta formation” and the “puncta stained for Gal8” value (Gal8 puncta) is reported as “an increase in puncta stained for Gal8”. The “ubiquitination response (ubiquitin puncta)” value (ubiquitin puncta) was “a ubiquitination response albeit of a lesser magnitude than when applying an overt lysosomal damaging agent LLOMe”, the “LysoTracker Red staining” value [2] was “a decrease in staining” and the ALIX puncta response (ALIX puncta) was “a milder but significant response”. The “LC3 response (average area of LC3 puncta per cell)” value (LC3 puncta) was “a similar LC3 response”.
